Laboratory results: patent US20050124632A1, “Remedies and/or preventives for diabetic ischemic heart diseases” (priority 2001, published 2005)

Key:
[1] = system: Ca leakage from sarcoplasmic reticulum; experiment: Ca leakage from sarcoplasmic reticulum in saponin-skinned papillary muscle fiber preparations (caffeine-induced tension as index); format: cell-based, Wistar rats; conditions: MCC-135 10^-7 M to 10^-5 M, skinned fiber preparation
Method: Diabetic cardiomyopathy was induced in 7-week old Wistar rats by an intravenous injection of 40 mg/kg of Streptozotocin via each tail (purchased from Sigma, hereinafter may be referred to as “STZ”) (J. Exp. Med., 1979, 149: 623-631). Since a severe cardiac dysfunction is observed 5 to 6 months after the administration of STZ (Malone, J. I., Schocken, D. D., Morrison, A. D., Gilbert-Barness, E., Diabetic cardiomyopathy and carnitine deficiency. J-Diabetes-Complications. 1999, 13(2): 86-90), the rats were subjected to the experiments 7 months after the administration of STZ. The rats were sacrificed and the hearts of the rats were isolated 7 months after the administration of STZ. The following experiment was conducted according to the method of Kitada et al. (J. Pharmacol. Exp. Ther. 1987, 243: 633-638). Skinned fiber preparations were prepared by saponin treatments of papillary muscles of the hearts isolated from the rats 7 months after the administration of STZ and the control rats. A medium for the preparations was changed from Ca (calcium ion) free buffer solution to a solution of pCa 6.7 to have sarcoplasmic reticulum uptake a certain amount of Ca in the presence of ATP. […]

[2] = system: contractile protein system; experiment: Relation between Ca concentration and contractile force in saponin-skinned papillary muscle fibers under acidosis (pH 6.6); format: cell-based, Wistar rats; conditions: for Hill n / Maximum Force / PCa50 / Resting Force: acidosis (pH6.6) + 1 μM MCC-135
Method: Diabetic cardiomyopathy model is prepared in a similar manner to that in Example 1. The rats 7 months after the administration of STZ were subjected to the experiments in a similar manner to that in Example 1. The rats were sacrificed and the hearts of the rats were isolated 7 months after the administration of STZ. The following experiment was conducted according to the method of Kitada et al. which is the same as that in the Example 1. Left ventricular papillary muscles were cut off from the isolated heart in an ice cooled Krebs-Henseleit solution, and contraction-relaxation function of the papillary muscles was measured by Magnus method. Some of the papillary muscles were applied to a functional analysis on a relation between various calcium ion (Ca) concentrations and contractile force by skinned fiber method with saponin treatment. Acidosis was induced by lowering the pH of the solution from 7.0 in normal to 6.6. A mode of change of relation between the various calcium ion (Ca) concentrations and the contractile forces in the presence or absence of MCC-135 was studied.

With Cc1ccc(N2CCNCC2)c(S(=O)(=O)O)c1.O [MCC-135, 5-methyl-2-(1-piperazinyl)benzenesulfonic acid monohydrate] the “effect on Ca leakage from sarcoplasmic reticulum” value ([1]; normal rats) was “had no effect”, the “effect on Ca leakage from sarcoplasmic reticulum” value ([1]; rats with diabetic cardiomyopathy (STZ, 7 months)) was “inhibited Ca leakage from the sarcoplasmic reticulum with diabetic cardiomyopathy in a concentration-dependant manner” and the “effect on the action of acidosis on cardiac muscle” value ([2]; diabetic cardiomyopathy) was “blocked the action of acidosis in the diabetic cardiomyopathy”. For the same molecule, the “effect on the action of acidosis on cardiac muscle” value ([2]; normal hearts) was “had no effect on the action of acidosis on the normal hearts”, the Hill n ([2]; normal rat) was 3.17 ± 0.42 and the “Maximum Force” value ([2]; normal rat) was 0.371 ± 0.027 mN/mm^2. The PCa50 ([2]; normal rat) was 5.43 ± 0.01, the “Resting Force” value ([2]; normal rat) was 0 ± 0 n.s mN/mm^2 and the Hill n ([2]; rat with cardiomyopathy) was 2.12 ± 0.20. For the same molecule, the “Maximum Force” value ([2]; rat with cardiomyopathy) was 0.286 ± 0.020**, *** mN/mm^2, the PCa50 ([2]; rat with cardiomyopathy) was 5.55 ± 0.07 and the “Resting Force” value ([2]; rat with cardiomyopathy) was 0.000 ± 0.000**, *** mN/mm^2.
